Patent publication US20240109881A1, “Heteroaryl Compounds as Ligand Directed Degraders of IRAK4” (Bristol-Myers Squibb Company, priority 2022, published 2024)
pEC50: −log10 of the molar value.

The compounds below were run against T1, IRAK4 (Homo sapiens, UniProt Q9NWZ3) (assay: ALE THP1 HTRF (Advanced Lipoxidation End Product THP1 Homogeneous Time Resolved Fluorescence)). Conditions: THP1 cells.
T1 construct: endogenous in cells; host or cells: THP-1 cells
T1 sequence (Q9NWZ3 1-460): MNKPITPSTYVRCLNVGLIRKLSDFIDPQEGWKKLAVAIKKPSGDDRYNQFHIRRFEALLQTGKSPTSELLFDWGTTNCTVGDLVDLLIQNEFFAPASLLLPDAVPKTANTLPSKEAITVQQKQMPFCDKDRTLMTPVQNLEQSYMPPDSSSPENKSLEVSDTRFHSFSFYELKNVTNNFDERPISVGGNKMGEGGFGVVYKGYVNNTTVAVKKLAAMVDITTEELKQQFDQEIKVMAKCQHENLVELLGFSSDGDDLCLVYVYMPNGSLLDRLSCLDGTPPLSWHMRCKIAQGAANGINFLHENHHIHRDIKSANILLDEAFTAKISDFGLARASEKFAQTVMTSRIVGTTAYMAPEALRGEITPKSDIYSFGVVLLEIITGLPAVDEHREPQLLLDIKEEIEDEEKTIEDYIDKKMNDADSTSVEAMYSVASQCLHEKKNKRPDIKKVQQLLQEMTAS
Type: cell-based
Procedure: For Homogenous Time Resolved Fluorescence (HTRF) assays, a Cisbio HTRF kit was used, which included: Lysis Buffer #1 4×, Blocking Reagent #3 100×, 20× Antibody 1 (Anti-IRAK4 d2), 20× Antibody 2 (Anti-IRAK4 k), and Detection Buffer.
4× Lysis Buffer was stored at 4° C. For use as 1× Lysis buffer, the 4× solution was diluted with de-ionized water (distilled water, Gibco Cat. #15230279) and 100× Blocking Reagent in a 1:3:0.04 volume ratio.
20× Antibody Solution aliquots were stored in −80° C. and the Detection Buffer was stored in 4° C. For use as a 1× Antibody Solution, the 20× Antibody Solution aliquot was diluted with Detection Buffer in a 1:19 volume ratio.
Cells were lysed at room temperature for 45 min with shaking. A BCA protein assay was performed and normalization was conducted to the desired total protein concentration with 1× lysis buffer. Next, 1× Antibody Solutions were prepared by adding 380 μL Detection Buffer to 20 μL 20× Antibody Solution aliquots and mixing well. 1× Antibody Solutions were combined 1:1 and briefly vortexed. For control wells, 20 μL 1× anti IRAK4-k Antibody Solution was saved. The 384-well plate (ProxiPlate-384 Plus, Perkin Elmer Cat. #6008289) was loaded by adding 4 μL of the mixed Antibody Solution to empty wells using a single channel repeater. Using a multi-channel repeater, 16 μL lysate was added per well, and any bubbles that were formed were popped with 20 μL pipette tips and Kimwipe edges. In column 10, triplicates of each control was prepared. In wells A10, B10, and C10, buffer control was prepared by adding 16 μL Lysis Buffer and 4 μL Detection Buffer. In wells D10, E10, and F10, cryptate control was prepared by adding 16 μL Lysis Buffer, 2 μL Detection Buffer, and 2 μL 1× anti IRAK4-k Antibody Solution. In wells G10, H10, and I10, a negative control was prepared by adding 16 μL Lysis Buffer and 4 μL mixed Antibody Solution. The plate was sealed with a clear seal and covered with an aluminum lid. The plate was spun down at 800 g for 5 min and incubated in the dark at room temperature overnight. The next day, the plate was spun down at 800 g for 5 min. The samples were analyzed by a plate reader (Envision, PerkinElmer) using the Desnor 384 HTRF program.

ALE THP1 HTRF YMIN [%]	pEC50	Structure (SMILES)
35.3	6.49	N#Cc1cnc2c(cnn2-c2cc(NC3CCCC3)c(C(=O)N[C@H]3CC[C@H](CN4CCN(c5ccc6c(c5)C(=O)N(C5CCC(=O)NC5=O)C6)CC4)CC3)cn2)c1 (stereo partly drawn) [P-24]
20.1	7.92	CC1(Nc2cc(-n3ncc4cc(C#N)cnc43)ncc2C(=O)NC2CCC(C(=O)N3CCN(c4ccc5c(c4)C(=O)N(C4CCC(=O)NC4=O)C5)CC3)CC2)CC1 (stereo not drawn) [P-25]
22.3	7.62	CC(C)(C)Nc1cc(-n2ncc3cc(C#N)cnc32)ncc1C(=O)NC1CCC(C(=O)N2CCN(c3ccc4c(c3)C(=O)N(C3CCC(=O)NC3=O)C4)CC2)CC1 (stereo not drawn) [P-26]
28.4	7.40	CN(C1CCN(c2ccc3c(c2)C(=O)N(C2CCC(=O)NC2=O)C3)CC1)[C@H]1CC[C@H](n2cc(-c3cnc(-n4ncc5cc(C#N)cnc54)cc3NC3CCCC3)nn2)CC1 (stereo partly drawn) [P-27]
36.6	6.84	N#Cc1cnc2c(cnn2-c2cc(NC3CCCC3)c(C(=O)NC3CCC(C(=O)NC4CCN(c5ccc(C6CCC(=O)NC6=O)cc5)CC4)CC3)cn2)c1 (stereo not drawn) [P-28]
14.1	7.01	N#Cc1cnc2c(cnn2-c2cc(NC3CCCC3)c(C(=O)N[C@H]3CC[C@H](CNC4CCN(c5ccc(C6CCC(=O)NC6=O)cc5)CC4)CC3)cn2)c1 (stereo partly drawn) [P-29]
44.1	5.48	N#Cc1cnc2c(cnn2-c2cc(NC3CCCC3)c(C(=O)NC3CCC(O)(CN4CCN(c5ccc6c(c5)C(=O)N(C5CCC(=O)NC5=O)C6=O)CC4)CC3)cn2)c1 (stereo not drawn) [P-30, 6-(5-cyano-1H-pyrazolo[3,4-b]pyridin-1-yl)-4-(cyclopentylamino)-N-((1s,4s)-4-((4-(2-(2,6-dioxopiperidin-3-yl)-1,3-dioxoisoindolin-5-yl)piperazin-1-yl)methyl)-4-hydroxycyclohexyl)nicotinamide]
18.2	7.22	N#Cc1cnc2c(cnn2-c2cc(NC3CCCC3)c(C(=O)NC3CCC(CN4CCC(C(=O)Nc5ccc(C6CCC(=O)NC6=O)cc5)CC4)CC3)cn2)c1 (stereo not drawn) [P-31]
21.0	6.26	C[C@@H]1CN(c2ccc3c(c2)C(=O)N(C2CCC(=O)NC2=O)C3=O)C[C@H](C)N1CC1CCC(NC(=O)c2cnc(-n3ncc4cc(C#N)cnc43)cc2NC2CCCC2)CC1 (stereo partly drawn) [P-32]
15.9	8.10	N#Cc1cnc2c(cnn2-c2cc(NC3CCCC3)c(-n3cc(C4CCC(NC(=O)C5CCN(c6ccc7c(c6)C(=O)N(C6CCC(=O)NC6=O)C7)CC5)CC4)nn3)cn2)c1 (stereo not drawn) [P-33]
12.9	6.22	N#Cc1cnc2c(cnn2-c2cc(NC3CCCC3)c(-c3cn([C@H]4CC[C@H](CN5CCC(C(=O)Nc6ccc(N7CCC(=O)NC7=O)cc6)CC5)CC4)nn3)cn2)c1 [P-34]
8.4	7.39	N#Cc1cnc2c(cnn2-c2cc(NC3CCCC3)c(C(=O)NC3CCC(CCN4CCN(c5ccc(C6CCC(=O)NC6=O)cc5)CC4)CC3)cn2)c1 (stereo not drawn) [P-35]
10.7	7.33	CC([C@H]1CC[C@H](NC(=O)c2cnc(-n3ncc4cc(C#N)cnc43)cc2NC2CCCC2)CC1)N1CCN(c2ccc3c(c2)C(=O)N(C2CCC(=O)NC2=O)C3)CC1 (stereo partly drawn) [P-36]
20.7	6.88	C[C@H]1CN(c2ccc3c(c2)C(=O)N(C2CCC(=O)NC2=O)C3=O)C[C@H](C)N1CC1CCC(NC(=O)c2cnc(-n3ncc4cc(C#N)cnc43)cc2NC2CCCC2)CC1 (stereo partly drawn) [P-37]
24.3	6.92	CN(c1ccc2c(c1)C(=O)N(C1CCC(=O)NC1=O)C2=O)C1CCN(C[C@H]2CC[C@H](NC(=O)c3cnc(-n4ncc5cc(C#N)cnc54)cc3NC3CCCC3)CC2)CC1 (stereo partly drawn) [P-38]
24.3	6.70	N#Cc1cnc2c(cnn2-c2cc(NC3CCCC3)c(C(=O)NC3CCC(CN4CC5(CCN(c6ccc(C7CCC(=O)NC7=O)cc6)CC5)C4)CC3)cn2)c1 (stereo not drawn) [P-39]
20.0	6.56	N#Cc1cnc2c(cnn2-c2cc(NC3CCCC3)c(-c3cn([C@H]4CC[C@H](CN5CCN(CC(=O)Nc6ccc(C7CCC(=O)NC7=O)cc6)CC5)CC4)nn3)cn2)c1 (stereo partly drawn) [P-40, 2-(4-(((1r,4r)-4-(4-(6-(5-Cyano-1H-pyrazolo[3,4-b]pyridin-1-yl)-4-(cyclopentylamino)pyridin-3-yl)-1H-1,2,3-triazol-1-yl)cyclohexyl)methyl)piperazin-1-yl)-N-(4-(2,6-dioxopiperidin-3-yl)phenyl)acetamide]
27.6	6.91	N#Cc1cnc2c(ccn2-c2cc(NC3CC3)c(C(=O)NC3CCC(CN4CCC(CNc5ccc(C6CCC(=O)NC6=O)cc5)CC4)CC3)cn2)c1 (stereo not drawn) [P-42]
14.7	6.51	N#Cc1cnc2c(cnn2-c2cc(NC3CCCC3)c(C(=O)N[C@H]3CC[C@H](CN4CCC(CCc5ccc(C6CCC(=O)NC6=O)cc5)CC4)CC3)cn2)c1 (stereo partly drawn) [P-43]
38.8	6.76	N#Cc1cnc2c(cnn2-c2cc(NC3CCCC3)c(-c3cn([C@H]4CC[C@H](CN5CCC(CNc6ccc(C7CCC(=O)NC7=O)cc6)CC5)CC4)nn3)cn2)c1 (stereo partly drawn) [P-44]
11.4	7.55	N#Cc1cnc2c(cnn2-c2cc(NC3CCCC3)c(-c3cn([C@H]4CC[C@H](C(=O)N5CCC(C(=O)Nc6ccc(N7CCC(=O)NC7=O)cc6)CC5)CC4)nn3)cn2)c1 [P-45, 1-[4-[4-[6-(5-Cyanopyrazolo[3,4-b]pyridin-1-yl)-4-(cyclopentylamino)-3-pyridyl]triazol-1-yl]cyclohexanecarbonyl]-N-[4-(2,4-dioxohexahydropyrimidin-1-yl)phenyl]piperidine-4-carboxamide]
31.5	7.13	N#Cc1cnc2c(cnn2-c2cc(NC3CCCC3)c(C(=O)NC3CCC(CN4CCC(C(=O)Nc5ccc(C6CCC(=O)NC6=O)cc5)C(F)(F)C4)CC3)cn2)c1 (stereo not drawn) [P-46]
14.1	6.96	N#Cc1cnc2c(cnn2-c2cc(NC3CCCC3)c(-c3cn([C@H]4CC[C@H](CN5CCC(C(=O)Nc6ccc(C7CCC(=O)NC7=O)cc6)CC5)CC4)nn3)cn2)c1 (stereo partly drawn) [P-47]
12.0	7.00	N#Cc1cnc2c(ccn2-c2cc(NC3CCCC3)c(C(=O)NC3CCC(CCN4CCN(c5ccc(C6CCC(=O)NC6=O)cc5)CC4)CC3)cn2)c1 (stereo not drawn) [P-48]
10.9	7.68	N#Cc1cnc2c(ccn2-c2cc(NC3CC3)c(C(=O)NC3CCC(CCN4CCN(c5ccc(C6CCC(=O)NC6=O)cc5)CC4)CC3)cn2)c1 (stereo not drawn) [P-49]
7.5	7.96	CC(C)Nc1cc(-n2ncc3cc(C#N)cnc32)ncc1C(=O)NC1CCC(CCN2CCN(c3ccc(C4CCC(=O)NC4=O)cc3)CC2)CC1 (stereo not drawn) [P-50]
7.9	8.05	N#Cc1cnc2c(cnn2-c2cc(NC3CC3)c(C(=O)NC3CCC(CCN4CCN(c5ccc(C6CCC(=O)NC6=O)cc5)CC4)CC3)cn2)c1 (stereo not drawn) [P-51]
13.4	7.41	N#Cc1cnc2c(cnn2-c2cc(NC3CCCC3)c(C(=O)NC3CCC(CCN4CCC(Nc5cccc(C6CCC(=O)NC6=O)c5)CC4)CC3)cn2)c1 (stereo not drawn) [P-52]
37.6	5.72	N#Cc1cnc2c(c1)ncn2-c1cc(NC2CCCC2)c(C(=O)N[C@H]2CC[C@H](CN3CCN(c4ccc5c(c4)C(=O)N(C4CCC(=O)NC4=O)C5=O)CC3)CC2)cn1 (stereo partly drawn) [P-53]
14.6	7.51	N#Cc1cnc2c(cnn2-c2cc(NC3CCCC3)c(-c3cn([C@H]4CC[C@H](CCN5CCN(c6ccc(C7CCC(=O)NC7=O)cc6)CC5)CC4)nn3)cn2)c1 (stereo partly drawn) [P-54, 1-(4-(Cyclopentylamino)-5-(1-((1r,4r)-4-(2-(4-(4-(2,6-dioxopiperidin-3-yl)phenyl)piperazin-1-yl)ethyl)cyclohexyl)-1H-1,2,3-triazol-4-yl)pyridin-2-yl)-1H-pyrazolo[3,4-b]pyridine-5-carbonitrile]
